Experimental data as given in the supplement of paper PMC10307832.

Columns and labels:
Assay in all cases: relative viability (nuclei count vs DMSO), 5 days (fraction); higher = more cells survive
Doxorubicin + Bortezomib = compound: COc1cccc2c1C(=O)c1c(O)c3c(c(O)c1C2=O)C[C@@](O)(C(=O)CO)C[C@@H]3O[C@H]1C[C@H](N)[C@H](O)[C@H](C)O1 [Doxorubicin] + CC(C)C[C@H](NC(=O)[C@H](Cc1ccccc1)NC(=O)c1cnccn1)B(O)O [Bortezomib] (partner 0.002 µM)
Summary of the method: (§1)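 Lung cancer cell lines were seeded in 1536-well plates and dosed by pin tool the next day, with either a single drug or a fixed anchor-drug dose combined with five library-drug doses (not always all listed) spaced in √10 steps. Five days later, one step fixed the cells and stained their nuclei (final 0.05% Triton X-100, 1% formaldehyde, 1 ug/ml Hoechst), and nuclei were counted on 4× images. Relative viability is the nuclei count in treated wells divided by the count in vehicle wells, and each value is the median of duplicate plates.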

Doxorubicin + Foretinib = compound: COc1cccc2c1C(=O)c1c(O)c3c(c(O)c1C2=O)C[C@@](O)(C(=O)CO)C[C@@H]3O[C@H]1C[C@H](N)[C@H](O)[C@H](C)O1 [Doxorubicin] + COc1cc2c(Oc3ccc(NC(=O)C4(C(=O)Nc5ccc(F)cc5)CC4)cc3F)ccnc2cc1OCCCN1CCOCC1 [Foretinib] (partner 0.25 µM)
Summary of the method: as §1

BAY61-3606 + Tozasertib = compound: COC1=C(C=C(C=C1)C2=CC3=NC=CN3C(=N2)NC4=C(C=CC=N4)C(=O)N)OC [BAY61-3606] + Cc1cc(Nc2cc(N3CCN(C)CC3)nc(Sc3ccc(NC(=O)C4CC4)cc3)n2)n[nH]1 [Tozasertib] (partner 0.1 µM)
Summary of the method: as §1

Doxorubicin + Linsitinib = compound: COc1cccc2c1C(=O)c1c(O)c3c(c(O)c1C2=O)C[C@@](O)(C(=O)CO)C[C@@H]3O[C@H]1C[C@H](N)[C@H](O)[C@H](C)O1 [Doxorubicin] + C[C@]1(O)C[C@@H](c2nc(-c3ccc4ccc(-c5ccccc5)nc4c3)c3c(N)nccn32)C1 [Linsitinib] (partner 1 µM)
Summary of the method: as §1

Row | Cell Line | relative viability (Doxorubicin + Bortezomib; first compound 0.001 µM) | relative viability (Doxorubicin + Bortezomib; first compound 0.003162 µM) | relative viability (Doxorubicin + Bortezomib; first compound 0.01 µM) | relative viability (Doxorubicin + Bortezomib; first compound 0.03162 µM) | relative viability (Doxorubicin + Bortezomib; first compound 0.1 µM) | relative viability (Doxorubicin + Foretinib; first compound 0.001 µM) | relative viability (Doxorubicin + Foretinib; first compound 0.003162 µM) | relative viability (Doxorubicin + Foretinib; first compound 0.01 µM) | relative viability (Doxorubicin + Foretinib; first compound 0.03162 µM) | relative viability (Doxorubicin + Foretinib; first compound 0.1 µM) | relative viability (BAY61-3606 + Tozasertib; first compound 0.02 µM) | relative viability (BAY61-3606 + Tozasertib; first compound 0.06325 µM) | relative viability (BAY61-3606 + Tozasertib; first compound 0.2 µM) | relative viability (BAY61-3606 + Tozasertib; first compound 0.6325 µM) | relative viability (BAY61-3606 + Tozasertib; first compound 2 µM) | relative viability (Doxorubicin + Linsitinib; first compound 0.001 µM) | relative viability (Doxorubicin + Linsitinib; first compound 0.003162 µM) | relative viability (Doxorubicin + Linsitinib; first compound 0.01 µM) | relative viability (Doxorubicin + Linsitinib; first compound 0.03162 µM) | relative viability (Doxorubicin + Linsitinib; first compound 0.1 µM)
1 | NCI-H1734 | 0.867 | 1.09 | 0.89 | 0.588 | 0.429 | 0.854 | 0.989 | 0.934 | 0.68 | 0.769 | 0.238 | 0.243 | 0.222 | 0.227 | 0.196 | 0.945 | 0.922 | 0.826 | 0.731 | 0.871
2 | NCI-H1563 | 0.716 | 0.772 | 0.594 | 0.515 | 0.421 | 0.876 | 0.878 | 0.728 | 0.58 | 0.502 |  |  |  |  |  | 1.07 | 0.935 | 0.898 | 0.634 | 0.587
3 | Calu-6 | 0.897 | 1.01 | 0.804 | 0.408 | 0.248 | 0.945 | 1.01 | 0.828 | 0.619 | 0.362 |  |  |  |  |  | 0.944 | 0.972 | 0.814 | 0.627 | 0.702
4 | NCI-H1793 |  |  |  |  |  |  | 0.881 | 0.63 | 0.531 | 0.594 | 0.313 | 0.227 |  | 0.203 | 0.222 |  | 0.813 | 0.848 | 0.579 | 0.911
5 | HCC-44 | 0.947 | 0.988 | 0.891 | 0.949 | 0.828 |  |  |  |  |  | 0.91 |  | 0.832 | 0.533 | 0.327 | 0.686 | 0.667 | 0.621 | 0.69 | 0.753
6 | NCI-H1792 | 0.929 | 1.1 | 1 | 0.898 | 0.924 |  |  |  |  |  |  |  |  |  |  | 0.563 | 0.612 | 0.543 | 0.455 | 0.474
7 | EBC-1 | 0.589 | 0.52 | 0.542 | 0.363 | 0.222 | 0.114 | 0.1 | 0.0884 | 0.0952 | 0.0885 |  |  |  |  |  | 0.826 | 0.839 | 0.983 | 0.722 | 0.985
8 | NCI-H1623 |  |  |  |  |  | 0.766 | 0.815 | 0.895 | 0.798 | 0.78 | 0.485 | 0.439 | 0.458 | 0.394 | 0.328 |  |  |  |  | 
9 | NCI-H1648 |  |  |  |  |  |  |  |  |  |  | 0.376 | 0.356 | 0.448 | 0.408 | 0.231 |  |  |  |  | 
10 | NCI-H522 |  |  |  |  |  |  |  |  |  |  | 0.562 | 0.517 | 0.527 | 0.574 | 0.5 |  |  |  |  | 
11 | NCI-H1650 | 0.215 | 0.185 | 0.187 | 0.185 | 0.168 | 0.967 | 1.38 | 0.859 | 0.291 | 0.181 | 0.362 | 0.265 | 0.264 | 0.329 | 0.204 |  |  |  |  | 
12 | NCI-H1944 |  |  |  |  |  | 0.848 | 0.945 | 0.908 | 0.812 | 0.869 | 0.256 | 0.224 | 0.239 | 0.249 | 0.215 | 1.17 | 1.23 | 1.34 | 1.16 | 1.3
13 | IA-LM | 0.819 | 0.877 | 0.648 | 0.404 | 0.136 | 1.04 | 1.13 | 1.2 | 1.1 | 1.06 |  |  |  |  |  | 0.519 | 0.706 | 0.575 | 0.573 | 0.74
14 | SK-MES-1 |  |  |  |  |  | 1 | 0.843 | 0.923 | 0.818 | 0.766 | 0.889 | 0.819 | 0.623 | 0.61 | 0.135 | 0.952 | 1.07 | 1.07 | 1.05 | 0.936
15 | NCI-H1395 |  |  |  |  |  | 0.949 | 1.05 | 0.953 | 0.892 | 0.92 | 0.722 | 0.679 | 0.682 | 0.781 | 0.411 | 1.03 | 1.09 | 1.02 | 1.11 | 0.92
16 | NCI-H2342 |  |  |  |  |  | 1.08 | 1.08 | 1.06 | 0.791 | 1.17 | 0.574 | 0.466 | 0.47 | 0.668 | 0.525 |  |  |  |  | 
17 | NCI-H1299 | 1.04 | 1.03 | 1.01 | 1.07 | 0.962 | 1.1 | 1.11 | 1.1 | 1.16 | 1.05 |  |  |  |  |  | 0.949 | 0.942 | 1.03 | 0.943 | 0.999
18 | A549 |  |  |  |  |  | 0.911 | 1.1 | 0.927 | 0.684 | 0.29 |  |  |  |  |  |  | 0.609 | 0.502 | 0.52 | 0.646
19 | NCI-H2170 |  |  |  |  |  | 0.994 | 1.07 | 0.998 | 0.96 | 0.97 | 0.714 | 0.475 | 0.751 | 0.607 | 0.213 |  |  |  |  | 
20 | SW 900 |  |  |  |  |  | 0.929 | 1.06 | 0.727 | 0.727 | 0.958 | 0.576 | 0.582 | 0.372 | 0.294 | 0.237 |  |  |  |  | 
21 | ChaGo-K-1 | 1.16 | 0.832 | 0.948 | 0.47 | 0.319 | 1.03 | 0.946 | 0.835 | 0.937 | 0.826 | 0.237 | 0.21 | 0.232 | 0.22 | 0.223 |  |  |  |  | 
22 | LK-2 |  |  |  |  |  | 1.2 | 1.32 | 0.904 | 0.826 | 1.41 | 0.19 | 0.163 | 0.193 | 0.158 | 0.21 | 0.524 | 0.742 | 0.409 | 0.483 | 0.627
23 | NCI-H1703 | 0.234 | 0.324 | 0.25 | 0.165 | 0.0968 |  | 0.304 | 0.3 |  | 0.24 |  |  |  |  |  | 0.481 | 0.676 | 0.695 | 0.64 | 0.474
